Article PMC6941172 (Journal of medicinal chemistry, 2018)
“Also recorded” adds a separate entry of the source.

Experiments:
C57BL/6 mice = assay: Spontaneous locomotor activity assay in mice; assay type: in vivo, mouse; details: for Hyperlocomotor action: IP 3, 10 and 30 mg/kg
Dopamine D5 = Dopamine D5 (Homo sapiens, UniProt P21918); assay: PDSP radioligand displacement, [3H]SCH233930; assay type: binding; details: [3H]SCH233930, PDSP primary assay
[1] = Microsomal stability assay, mouse liver microsomes; assay type: in vitro ADME; details: for Increase in half-life (MLM) relative to parent ligand: vs respective parent (8a, 8i, 8n or 8k)
adult male Wistar rats = assay: Spontaneous locomotor activity assay in rats; assay type: in vivo, rat
[2] = Pharmacokinetic study, IP 10 mg/kg, plasma and brain; assay type: in vivo, rat; details: rats
rats = assay: Rotarod pilot experiment in rats; assay type: in vivo, rat
[3] = Microsomal stability assay, human liver microsomes; assay type: in vitro ADME; details: for Increase in half-life (HLM) relative to parent ligand: vs respective parent (8a, 8i, 8n or 8k)
HEPG2 (liver) cells = assay: Cytotoxicity assay; assay type: cell-based, human; details: HEPG2, up to 400 μM, 48 hours
HEK293 (kidney) cells = assay: Cytotoxicity assay; assay type: cell-based, human; details: HEK293, up to 400 μM, 48 hours
[4] = test system: BZP rat brain site of GABAARs; assay: PDSP radioligand displacement, [3H]flunitrazepam; assay type: binding; details: [3H]flunitrazepam displacement
GABAAR α6β3γ2 subtype = GABAAR α6β3γ2 subtype (Rattus norvegicus, UniProt P18508+P30191+P63079); assay: Electrophysiological assay in Xenopus oocytes, modulation of GABA EC3 currents; assay type: cell-based
DOR = DOR (Homo sapiens, UniProt P41143); assay: PDSP radioligand displacement, [3H]DADLE; assay type: binding; details: PDSP primary assay
α1-5β3γ2 receptors = assay: Electrophysiological assay in Xenopus oocytes, other receptor subtypes; assay type: cell-based; details: two-point experiments
Solubility assay = assay type: physicochemical; details: vs 8k, neutral and acidic aqueous media
[5] = test system: Female Swiss Webster mice; details: 5 mg/kg positive control

Chain of GABAAR α6β3γ2 subtype (P30191 20-453): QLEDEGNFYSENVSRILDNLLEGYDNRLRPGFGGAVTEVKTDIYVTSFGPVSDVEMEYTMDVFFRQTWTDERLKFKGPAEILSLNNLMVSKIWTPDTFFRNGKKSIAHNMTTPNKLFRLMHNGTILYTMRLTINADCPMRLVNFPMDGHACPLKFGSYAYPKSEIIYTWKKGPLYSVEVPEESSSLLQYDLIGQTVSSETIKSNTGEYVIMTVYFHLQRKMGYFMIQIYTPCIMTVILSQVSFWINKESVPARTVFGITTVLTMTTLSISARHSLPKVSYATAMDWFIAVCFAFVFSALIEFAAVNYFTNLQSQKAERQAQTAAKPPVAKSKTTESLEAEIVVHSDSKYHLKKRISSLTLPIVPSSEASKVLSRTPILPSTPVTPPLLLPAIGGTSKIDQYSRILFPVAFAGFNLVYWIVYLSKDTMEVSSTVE
Chain of GABAAR α6β3γ2 subtype (P63079 26-473): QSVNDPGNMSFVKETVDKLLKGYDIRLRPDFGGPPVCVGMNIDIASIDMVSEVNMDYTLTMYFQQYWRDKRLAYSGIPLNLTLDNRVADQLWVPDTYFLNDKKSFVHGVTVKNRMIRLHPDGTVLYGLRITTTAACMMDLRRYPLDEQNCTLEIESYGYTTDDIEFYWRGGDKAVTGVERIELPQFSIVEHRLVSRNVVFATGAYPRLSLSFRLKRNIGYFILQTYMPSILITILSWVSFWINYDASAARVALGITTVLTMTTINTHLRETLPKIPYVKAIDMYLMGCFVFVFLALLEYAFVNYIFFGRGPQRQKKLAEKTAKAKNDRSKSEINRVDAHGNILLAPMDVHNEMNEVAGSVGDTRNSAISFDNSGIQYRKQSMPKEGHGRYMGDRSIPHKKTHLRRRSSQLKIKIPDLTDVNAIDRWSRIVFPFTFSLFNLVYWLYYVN
Chain of GABAAR α6β3γ2 subtype (P18508 39-466): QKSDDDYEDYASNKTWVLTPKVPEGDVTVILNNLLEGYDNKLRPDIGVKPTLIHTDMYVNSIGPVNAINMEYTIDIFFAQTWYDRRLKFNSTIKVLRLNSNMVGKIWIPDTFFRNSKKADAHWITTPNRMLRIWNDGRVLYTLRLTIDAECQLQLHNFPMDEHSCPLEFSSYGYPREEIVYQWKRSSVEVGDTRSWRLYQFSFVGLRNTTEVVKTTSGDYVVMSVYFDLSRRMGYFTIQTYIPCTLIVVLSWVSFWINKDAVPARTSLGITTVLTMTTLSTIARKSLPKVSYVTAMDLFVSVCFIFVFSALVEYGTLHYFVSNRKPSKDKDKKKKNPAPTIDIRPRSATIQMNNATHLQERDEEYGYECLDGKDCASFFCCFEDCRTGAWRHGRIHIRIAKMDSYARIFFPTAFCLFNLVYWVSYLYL
Chain of DOR (P41143 whole entry): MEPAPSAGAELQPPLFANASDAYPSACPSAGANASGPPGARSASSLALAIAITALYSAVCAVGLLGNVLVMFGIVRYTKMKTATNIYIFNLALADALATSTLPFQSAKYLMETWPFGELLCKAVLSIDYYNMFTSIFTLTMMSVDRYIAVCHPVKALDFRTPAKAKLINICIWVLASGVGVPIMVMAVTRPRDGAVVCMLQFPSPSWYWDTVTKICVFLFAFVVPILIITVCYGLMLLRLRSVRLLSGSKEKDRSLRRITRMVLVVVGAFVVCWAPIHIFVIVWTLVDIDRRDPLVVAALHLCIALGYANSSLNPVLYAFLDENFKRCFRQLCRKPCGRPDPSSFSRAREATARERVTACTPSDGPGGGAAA
Chain of Dopamine D5 (P21918 whole entry): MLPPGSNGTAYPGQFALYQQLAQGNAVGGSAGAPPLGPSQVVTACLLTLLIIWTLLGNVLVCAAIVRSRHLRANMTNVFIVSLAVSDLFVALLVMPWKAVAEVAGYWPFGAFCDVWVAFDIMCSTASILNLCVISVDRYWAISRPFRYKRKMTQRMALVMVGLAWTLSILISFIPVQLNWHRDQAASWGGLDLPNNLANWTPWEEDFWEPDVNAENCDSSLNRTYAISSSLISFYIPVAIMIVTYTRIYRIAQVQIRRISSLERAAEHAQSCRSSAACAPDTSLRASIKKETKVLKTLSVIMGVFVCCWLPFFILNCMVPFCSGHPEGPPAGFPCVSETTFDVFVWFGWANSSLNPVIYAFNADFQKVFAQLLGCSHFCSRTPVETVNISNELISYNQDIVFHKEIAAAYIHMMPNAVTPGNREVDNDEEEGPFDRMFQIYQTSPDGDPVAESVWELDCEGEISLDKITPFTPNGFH

COc1ccc(-n2nc3c4ccc(OC)cc4[nH]cc-3c2=O)cc1 [Compound 8a, 7-Methoxy-2-(4-methoxyphenyl)-2,5-dihydro-3H-pyrazolo[4,3-c]quinolin-3-one]
Hyperlocomotor action (C57BL/6 mice): induced a hyperlocomotor action
Activity at Dopamine D5 (Dopamine D5): showed activity

[2H]C([2H])([2H])Oc1ccc(-n2nc3c4ccc(OC)cc4[nH]cc-3c2=O)cc1 [Compound 8b, 7-Methoxy-2-(4-methoxy-d3-phenyl)-2,5-dihydro-3H-pyrazolo[4,3-c]quinolin-3-one]
Increase in half-life (MLM) relative to parent ligand [1]: three-fold
Hyperlocomotor response (adult male Wistar rats; IP 10 mg/kg, first experiment (Figure 11A)): induced a hyperlocomotor response
Hyperlocomotor response (adult male Wistar rats; IP 10 mg/kg, repeated experiment (Figure 11C)): did not reach statistical significance
Hyperlocomotor response (adult male Wistar rats; IP 3 and 10 mg/kg, third experiment (Figure 11E)): present
Brain concentration (Cmax) compared with parent 8a [2]: almost two-fold increase
Free (unbound) brain concentrations [2]: ~100 nM
Motor coordination and balance on the rotarod (rats; IP doses as high as 55 mg/kg): retained
Hyperlocomotor effect in combination with diazepam (C57BL/6 mice; IP 10 mg/kg with diazepam 3 mg/kg IP): present
Hyperlocomotor action (C57BL/6 mice): induced a hyperlocomotor action
Increase in half-life (HLM) relative to parent ligand [3]: 2.5 fold

[2H]C([2H])([2H])Oc1ccc2c3nn(-c4ccc(OC)cc4)c(=O)c-3c[nH]c2c1 [Compound 8c, 7-Methoxy-d3-2-(4-methoxyphenyl)-2,5-dihydro-3H-pyrazolo[4,3-c]quinolin-3-one]
Increase in half-life (MLM) relative to parent ligand [1]: four-fold
Brain concentration (Cmax) compared with parent 8a [2]: almost two-fold increase
Increase in half-life (HLM) relative to parent ligand [3]: three-fold

[2H]C([2H])([2H])Oc1ccc(-n2nc3c4ccc(OC([2H])([2H])[2H])cc4[nH]cc-3c2=O)cc1 [Compound 8d, 7-Methoxy-d3-2-(4-methoxy-d3-phenyl)-2,5-dihydro-3H-pyrazolo[4,3-c]quinolin-3-one]
Brain concentration (Cmax) compared with parent 8a [2]: almost two-fold increase

[2H]C([2H])([2H])Oc1cccc(-n2nc3c4ccc(OC([2H])([2H])[2H])cc4[nH]cc-3c2=O)c1 [Compound 8e, 7-Methoxy-d3-2-(3-methoxy-d3-phenyl)-2,5-dihydro-3H-pyrazolo[4,3-c]quinolin-3-one]
Cytotoxicity / cell viability (HEPG2 (liver) cells): no impact on cytotoxicity
Cytotoxicity / cell viability (HEK293 (kidney) cells): no impact on cytotoxicity

[2H]C([2H])([2H])Oc1ccc2c3nn(-c4ccccc4OC([2H])([2H])[2H])c(=O)c-3c[nH]c2c1 [Compound 8f, 7-Methoxy-d3-2-(2-methoxy-d3-phenyl)-2,5-dihydro-3H-pyrazolo[4,3-c]quinolin-3-one]
Cytotoxicity / cell viability (HEPG2 (liver) cells): no impact on cytotoxicity
Cytotoxicity / cell viability (HEK293 (kidney) cells): no impact on cytotoxicity

[2H]C([2H])([2H])Oc1ccccc1-n1nc2c3ccc(OC)cc3[nH]cc-2c1=O [Compound 8h, 7-Methoxy-2-(2-methoxy-d3-phenyl)-2,5-dihydro-3H-pyrazolo[4,3-c]quinolin-3-one]
Binding to the BZP rat brain site (in words) [4]: significantly less binding; also recorded: significantly reduced affinity

[2H]C([2H])([2H])Oc1cccc(-n2nc3c4cc(Cl)ccc4[nH]cc-3c2=O)c1 [Compound 8j, 8-Chloro-2-(3-methoxy-d3-phenyl)-2,5-dihydro-3H-pyrazolo[4,3-c]quinolin-3-one]
Efficacy / activity at the α6β3γ2 subtype (in words) (GABAAR α6β3γ2 subtype): poorer efficacy
Cytotoxicity / cell viability (HEPG2 (liver) cells): no impact on cytotoxicity
Increase in half-life (MLM) relative to parent ligand [1]: two-fold
Cytotoxicity / cell viability (HEK293 (kidney) cells): no impact on cytotoxicity
Increase in half-life (HLM) relative to parent ligand [3]: three-fold

[2H]C([2H])([2H])Oc1ccc(-n2nc3c4cc(Cl)ccc4[nH]cc-3c2=O)cc1 [Compound 8l, 8-Chloro-2-(4-methoxy-d3-phenyl)-2,5-dihydro-3H-pyrazolo[4,3-c]quinolin-3-one]
Interaction with DOR (DOR): weakly interacted

[2H]C([2H])([2H])Oc1ccccc1-n1nc2c3cc(Cl)ccc3[nH]cc-2c1=O [Compound 8m, 8-Chloro-2-(2-methoxy-d3-phenyl)-2,5-dihydro-3H-pyrazolo[4,3-c]quinolin-3-one]
Efficacy / activity at the α6β3γ2 subtype (in words) (GABAAR α6β3γ2 subtype): completely inactive; also recorded: no activity; also recorded: almost no efficacy
Cytotoxicity / cell viability (HEPG2 (liver) cells): no impact on cytotoxicity
Binding to the BZP rat brain site (in words) [4]: reasonable binding affinity
Motor coordination and balance on the rotarod (rats; IP doses as high as 60 mg/kg): retained
Cytotoxicity / cell viability (HEK293 (kidney) cells): no impact on cytotoxicity

[2H]C([2H])([2H])Oc1ccc(-n2nc3c4ccc(Br)cc4[nH]cc-3c2=O)cc1 [Compound 8o, 7-Bromo-2-(4-methoxy-d3-phenyl)-2,5-dihydro-3H-pyrazolo[4,3-c]quinolin-3-one]
Efficacy / activity at the α6β3γ2 subtype (in words) (GABAAR α6β3γ2 subtype): efficacies comparable to 8n
Increase in MLM-mediated half-life ([1]; vs parent 8n): 20%
Increase in half-life (HLM) relative to parent ligand [3]: two-fold

[2H]C([2H])([2H])Oc1ccccc1-n1nc2c3ccc(Br)cc3[nH]cc-2c1=O [Compound 8q, 7-Bromo-2-(2-methoxy-d3-phenyl)-2,5-dihydro-3H-pyrazolo[4,3-c]quinolin-3-one]
Binding to the BZP rat brain site (in words) [4]: significantly less binding; also recorded: significantly reduced affinity

[2H]C([2H])([2H])Oc1ccc(-n2nc3c4ccc(OC)cc4[nH]cc-3c2=O)cn1 [Compound 13b, 7-Methoxy-2-(6-methoxy-d3-pyridin-3-yl)-2,5-dihydro-3H-pyrazolo[4,3-c]quinolin-3-one]
Efficacy / activity at the α6β3γ2 subtype (in words) (GABAAR α6β3γ2 subtype): retained some efficacy

[2H]C([2H])([2H])Oc1ccc2c3nn(-c4ccc(OC)nc4)c(=O)c-3c[nH]c2c1 [Compound 13c, 7-Methoxy-d3-2-(6-methoxypyridin-3-yl)-2,5-dihydro-3H-pyrazolo[4,3-c]quinolin-3-one]
Efficacy / activity at the α6β3γ2 subtype (in words) (GABAAR α6β3γ2 subtype): retained some efficacy
Cytotoxicity / cell viability (HEPG2 (liver) cells): no impact of cell viability
Brain AUC0-12 as % of that obtained with 8b [2]: 45%
Brain AUC0-12 as % of that obtained with 8c [2]: 36%
Brain AUC0-12 as % of that obtained with 8d [2]: 55%
Brain concentration (Cmax) compared with parent 8a [2]: considerably less
Activity at α1-5β3γ2 receptors (α1-5β3γ2 receptors): lack of activity
Cytotoxicity / cell viability (HEK293 (kidney) cells): no impact of cell viability

COc1ccc(-n2nc3c4cc(Cl)ccc4[nH]cc-3c2=O)cn1 [Compound 13e, 8-Chloro-2-(6-methoxypyridin-3-yl)-2,5-dihydro-3H-pyrazolo[4,3-c]quinolin-3-one]
Cytotoxicity / cell viability (HEPG2 (liver) cells): no impact of cell viability
Increase in half-life (MLM) relative to parent ligand [1]: two-fold
Decrease in water solubility (Solubility assay): ~10 fold
Cytotoxicity / cell viability (HEK293 (kidney) cells): no impact of cell viability
Increase in half-life (HLM) relative to parent ligand [3]: nearly four-fold

[2H]C([2H])([2H])Oc1ccc(-n2nc3c4cc(Cl)ccc4[nH]cc-3c2=O)cn1 [Compound 13f, 8-Chloro-2-(6-methoxy-d3-pyridin-3-yl)-2,5-dihydro-3H-pyrazolo[4,3-c]quinolin-3-one]
Efficacy / activity at the α6β3γ2 subtype (in words) (GABAAR α6β3γ2 subtype): much poorer efficacy
Increased half-life (HLM) ([3]; vs OCH3 N-hetero ligand 13e): 40%

COc1ccc(-n2nc3c4ccc(Br)cc4[nH]cc-3c2=O)cn1 [Compound 13g, 7-Bromo-2-(6-methoxypyridin-3-yl)-2,5-dihydro-3H-pyrazolo[4,3-c]quinolin-3-one]
Cytotoxicity / cell viability (HEPG2 (liver) cells): no impact of cell viability
Increase in half-life (MLM) relative to parent ligand [1]: seven-fold
Cytotoxicity / cell viability (HEK293 (kidney) cells): no impact of cell viability
Increase in half-life (HLM) relative to parent ligand [3]: seven-fold

[2H]C([2H])([2H])Oc1ccc(-n2nc3c4ccc(Br)cc4[nH]cc-3c2=O)cn1 [Compound 13h, 7-Bromo-2-(6-methoxy-d3-pyridin-3-yl)-2,5-dihydro-3H-pyrazolo[4,3-c]quinolin-3-one]
Efficacy / activity at the α6β3γ2 subtype (in words) (GABAAR α6β3γ2 subtype): retained some efficacy; also recorded: efficacies comparable to 8n
Increase in stability in MLM ([1]; vs 8o): 30 fold
Increased stability (MLM half-life) ([1]; vs OCH3 N-hetero ligand 13g): six-fold
Increase in metabolic stability in HLM ([3]; vs 8o): 11 fold
Increased stability (HLM half-life) ([3]; vs OCH3 N-hetero ligand 13g): three-fold

COc1ccc(-n2nc3c4cnc(OC)cc4[nH]cc-3c2=O)cc1 [Compound 13i, 7-Methoxy-2-(4-methoxyphenyl)-2,5-dihydro-3H-pyrazolo[4,3-c][1,6]naphthyridin-3-one]
Efficacy / activity at the α6β3γ2 subtype (in words) (GABAAR α6β3γ2 subtype): retained some efficacy

CN1C(=O)CN=C(c2ccccc2)c2cc(Cl)ccc21 [diazepam]
Rotarod motor impairment [5]: greatest impairment of sensorimotor steadiness at 10 minutes
